The structures appear in SMILES notation.

Assay [1] relates to Phytophtora infectans. In words: Test of fungicidal action (fungal growth inhibition vs. untreated control; ED50 and Wirkungsgrad). It counts as cell-based. The protocol: Dazu können z.B. in die Kavitäten von Mikrotiterplatten eine Lösung des zu prüfenden Wirkstoffs pipettiert werden. Nachdem das Lösungsmittel abgedampft war, wird zu jeder Kavität Medium hinzugefügt. Das Medium wird vorher mit einer geeigneten Konzentration von Sporen bzw. Mycel des zu prüfenden Pilzes versetzt. Die resultierenden Konzentrationen des Wirkstoffes betragen z.B. 0,1, 1, 10 und 100 ppm.
Die Platten werden anschließend auf einem Schüttler bei einer Temperatur von 22°C inkubiert, bis in der unbehandelten Kontrolle ein ausreichendes Wachstum feststellbar ist.
Die Auswertung erfolgt dann photometrisch bei einer Wellenlänge von 620 nm. Aus den Messdaten der verschiedenen Konzentrationen kann die Wirkstoffdosis bestimmt werden, die zu einer 50 %igen Hemmung des Pilzwachstums gegenüber der unbehandelten Kontrolle führt (ED50).
Ein anderes Verfahren zur Prüfung der fungiziden Wirkung beruht darauf, die protektive Wirkung der zu testenden Verbindung an einer Pflanze zu testen. Dazu wird die Pflanze mit einer Lösung des zu prüfenden Wirkstoffs besprüht und anschließend mit einer Lösung von Pilzssporen inokuliert und über mehrere Tage hinweg beobachtet. Es kann dann im Vergleich zu einer Pflanze, die nicht vorab mit einer Wirkstofflösung behandelt wurde, festgestellt werden, ob der zu prüfende Wirkstoff den Befall bzw. die Ausbreitung des Pilzes verhindert oder mindert.
Auch hier kann die Wirkstoffkonzentration bestimmt werden, die zu einer 50 %igen Hemmung des Pilzwachstums gegenüber der unbehandelten Kontrolle führt (ED50).
Weiterhin kann als Größe zur Beurteilung einer fungiziden Wirkung der Wirkungsgrad herangezogen werden, wobei 0 % für einen Wirkungsgrad steht, der demjenigen der Kontrolle entspricht, während ein Wirkungsgrad von 100 % bedeutet, daß kein Befall beobachtet wird.
In die Kavitäten von Mikrotiterplatten wurde eine methanolische Lösung des anhand eines erfindungsgemäßen Verfahrens identifizierten Wirkstoffs (Tab. I, Bsp. 2), versetzt mit einem Emulgator, pipettiert. […]

Assay [2] concerns the target T1, Phosphomannomutase (Saccharomyces cerevisiae, UniProt P07283).
T1 construct: made in house; host or cells: E. coli BL21 (DE3), plasmid pSec53 (pGEX-4T-1)
T1 sequence (P07283 1-254): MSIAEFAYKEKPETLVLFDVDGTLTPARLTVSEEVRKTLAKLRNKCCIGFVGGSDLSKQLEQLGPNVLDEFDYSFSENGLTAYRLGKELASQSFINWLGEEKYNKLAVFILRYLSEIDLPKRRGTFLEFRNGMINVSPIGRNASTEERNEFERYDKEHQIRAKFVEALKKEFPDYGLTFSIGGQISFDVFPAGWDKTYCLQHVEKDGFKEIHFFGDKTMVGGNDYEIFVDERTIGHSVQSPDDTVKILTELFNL
In words: Phosphomannomutase inhibition test, coupled fluorescence assay (NADPH) in 384-well MTP. It counts as biochemical. To be noted: negative decadic logarithm of the molar IC50 (50 % inhibition of the enzyme). As to the method: Die Messung kann auch in für HTS- oder UHTS-Assays gängigeren Formaten erfolgen, z.B. in Mikrotiterplatten, in denen z.B. ein Gesamtvolumen von 5 bis 50 µl pro Ansatz bzw. pro Well vorgelegt wird und die einzelnen Komponenten in einer der vorstehend angegebenen Endkonzentrationen vorliegen (vgl. Beispiel 2). Dabei wird die zu testende, potentiell die Aktivität des Enzyms inhibierende oder aktivierende Verbindung (Kandidatenmolekül) z.B. in einer geeigneten Konzentration im oben angegebenen Testpuffer enthaltend D-Mannose-1-phosphat vorgelegt. Dann wird das erfindungsgemäße Polypeptid in oben genanntem Testpuffer, enthaltend NADP^+, Glucose und die für den gekoppelten Assay notwendigen Hilfsenzyme Phosphoglucose Isomerase und Glucose-6-phosphat Dehydrogenase zugegeben und die Reaktion damit gestartet. Der Ansatz wird dann z.B. bis zu 2 oder 3 Stunden bei einer geeigneten Temperatur inkubiert und die Fluoreszenzzunahme bei einer Anregungswellenlänge von 360 nm und einer Emissionswellenlänge von 460 nm gemessen.
Eine weitere Messung erfolgt in einem entsprechenden Ansatz, jedoch ohne Zugabe eines Kandidatenmoleküls und ohne Zugabe eines erfindungsgemäßen Polypeptids (Negativkontrolle). Eine weitere Messung erfolgt wiederum bei Abwesenheit eines Kandidatenmoleküls, jedoch bei Anwesenheit des erfindungsgemäßen Polypeptids (Positivkontrolle). […]

In assay [1] (Phytophtora infectans, 50 % inhibition of fungal growth vs. untreated control), `C[n+]1ccc(/C=C/c2ccc(N(c3ccc(/C=C/c4cc[n+](C)cc4)cc3)c3ccc(N(c4ccc(/C=C/c5cc[n+](C)cc5)cc4)c4ccc(/C=C/c5cc[n+](C)cc5)cc4)cc3)cc2)cc1` [Beispiel 2] registered an ED50 of 500 ppm. Besides, the WG in assay [1] (Phytophtora infectans, Wirkungsgrad: 0 % = like control, 100 % = no infestation) is on record as 33%. Also, the “fungizide Wirkung” value in assay [1] (at the application rate given in Tabelle II) was “deutlich fungizide Wirkung”. Besides, in assay [2], the pI50 is recorded as 4,9.

The record behind these values is EP1374681A1, “Process for identifying fungicidally active compounds” (Bayer CropScience AG, priority 2002, dated 2004).
